“And” between values parts separate entries of the source, which are not always exact repeats. Equal values may be shown once.
Test system: hypertriglyceridemic patients with cardiovascular disease or at high risk for cardiovascular disease
Test: REDUCE-IT: time to first occurrence of adjudicated cardiovascular endpoint events (primary, key secondary, other secondary, tertiary; sensitivity and landmark analyses)
Assay type: in vivo
Conditions: for New Onset Hypertension, patients with event: non-adjudicated
Description: The following study, also referred to as the REDUCE-IT clinical trial, was a large cardiovascular (CV) outcome trial designed to assess CV risk reduction benefit of AMR101 treatment (commercially known as VASCEPA®) versus placebo on the 5-point primary composite endpoint: CV death, non-fatal stroke, non-fatal myocardial infarction (MI), coronary revascularizations, or unstable angina requiring hospitalization.
A multi-center, prospective, randomized, double-blind, placebo-controlled, parallel-group study was performed to evaluate the effect of AMR101 (4 g per day) on cardiovascular health and mortality in hypertriglyceridemic patients with cardiovascular disease or at high risk for cardiovascular disease. The intended expanded indication of the study was treatment with AMR101 as an add-on to statin therapy to reduce the risk of cardiovascular events in patients with clinical cardiovascular disease or with multiple risk factors for cardiovascular disease.
The primary objective of this study was, in patients at LDL-C goal while on statin therapy, with established cardiovascular disease (CVD) or at high risk for CVD, and hypertriglyceridemia (e.g., fasting triglycerides (TG) ≥200 mg/dL and <500 mg/dL), to evaluate the effect of AMR101 4 g daily on time from randomization to first occurrence of any component of the composite of the following major CV events: CV death; nonfatal MI; (including silent MI; electrocardiograms (ECGs) were performed annually for the detection of silent MIs); nonfatal stroke; coronary revascularization; and unstable angina determined to be caused by myocardial ischemia by invasive/non-invasive testing and requiring emergent hospitalization.
The key secondary objective of this study was to evaluate the effect of AMR101 4 g daily on the time from randomization to the first occurrence of the composite of following major CV events: CV death, nonfatal MI (including silent MI), and nonfatal stroke.
Other secondary objectives for this study were to evaluate the effect of therapy on time from randomization to the first occurrence of the following individual or composite endpoints: composite of CV death or nonfatal MI (including silent MI); fatal or nonfatal MI (including silent MI); non-elective coronary revascularization represented as the composite of emergent or urgent classifications; CV death; unstable angina determined to be caused by myocardial ischemia by invasive/non-invasive testing and requiring emergent hospitalization; fatal or nonfatal stroke; composite of total mortality, nonfatal MI (including silent MI), or nonfatal stroke; and total mortality.
The key tertiary objectives for this study were to evaluate the effect of AMR101 4 g daily from baseline and percent change from baseline in fasting triglycerides and LDL-C. […]

[1] = ITT population, 4 g daily, N = 4089
[2] = ITT population, listed as Icosapent Ethyl

CC/C=C\C/C=C\C/C=C\C/C=C\C/C=C\CCCC(=O)OCC [AMR101, eicosapentaenoic acid ethyl ester] was tested, and the “Key secondary endpoint, HR” value (2-year landmark, ITT population) was 0.831, the “Fatal or nonfatal MI, relative risk reduction” value (4 g per day) was 31% and the “Fatal or nonfatal stroke, relative risk reduction” value (4 g per day) was 28%. For the same molecule, the “Hospitalization for unstable angina, relative risk reduction” value (4 g per day) was 32%, the “Total mortality, nonfatal MI, or nonfatal stroke, relative risk reduction” value (4 g per day) was 23% and the “Total mortality, relative risk reduction” value (4 g per day) was 13%. The “Urgent or emergent revascularization, relative risk reduction” value (4 g per day) was 35%, the “Non-CV deaths, patients” value (CEC-adjudicated) was 2.4% and the “Total mortality, patients” value (CEC-adjudicated deaths) was 6.7%. For the same molecule, the “Component contributing to key secondary endpoint (first event): CV Death” value (ITT population) was 149 (3.6) n (%), the “Component contributing to key secondary endpoint (first event): Nonfatal MI” value (ITT population) was 230 (5.6) n (%) and the “Component contributing to key secondary endpoint (first event): Nonfatal Stroke” value (ITT population) was 80 (2.0) n (%). For the same molecule, the “Component contributing to primary endpoint (first event): CV Death” value (ITT population) was 137 (3.4) n (%), the “Component contributing to primary endpoint (first event): Coronary Revascularization” value (ITT population) was 189 (4.6) n (%) and the “Component contributing to primary endpoint (first event): Hospitalization for Unstable Angina” value (ITT population) was 94 (2.3) n (%). The “Component contributing to primary endpoint (first event): Nonfatal MI” value (ITT population) was 205 (5.0) n (%), the “Component contributing to primary endpoint (first event): Nonfatal Stroke” value (ITT population) was 80 (2.0) n (%) and the “Composite: CV Death, Nonfatal MI, Non-Elective Coronary Revascularization, Unstable Angina, Nonfatal Stroke, or PVD Requiring Intervention” value (ITT population) was 683 (16.7) n (%). For the same molecule, the “Composite: CV Death, Nonfatal MI, Non-Elective Coronary Revascularization, Unstable Angina, Nonfatal Stroke, or PVD Requiring Intervention, HR (95% CI)” value (ITT population) was 0.77 (0.70-0.86), the “Composite: CV Death, Nonfatal MI, Non-Elective Coronary Revascularization, Unstable Angina, PVD Requiring Intervention, or Cardiac Arrhythmia” value (ITT population) was 741 (18.1) n (%) and the “Composite: CV Death, Nonfatal MI, Non-Elective Coronary Revascularization, Unstable Angina, PVD Requiring Intervention, or Cardiac Arrhythmia, HR (95% CI)” value (ITT population) was 0.86 (0.78-0.94). For the same molecule, the “Composite: CV Death, Nonfatal MI, Non-Elective Coronary Revascularization, or Unstable Angina” value (ITT population) was 513 (12.5) n (%), the “Composite: CV Death, Nonfatal MI, Non-Elective Coronary Revascularization, or Unstable Angina, HR (95% CI)” value (ITT population) was 0.76 (0.68-0.85) and the “Composite: CV Death, Nonfatal MI, Nonfatal Stroke, Cardiac Arrhythmia, or Cardiac Arrest” value (ITT population) was 589 (14.4) n (%). For the same molecule, the “Composite: CV Death, Nonfatal MI, Nonfatal Stroke, Cardiac Arrhythmia, or Cardiac Arrest, HR (95% CI)” value (ITT population) was 0.82 (0.73-0.91), the “Coronary Revascularization (all), HR (95% CI)” value (ITT population) was 0.66 and the “Coronary Revascularization (all), patients with event” value (ITT population) was 9.2%. The “Fatal or nonfatal MI (including silent MI), patients with event” value (ITT population) was 6.1%, the “Fatal or nonfatal MI, HR” value (ITT population) was 0.688 and the “Fatal or nonfatal stroke, HR” value (ITT population) was 0.720. The “Fatal or nonfatal stroke, patients with event” value (ITT population) was 2.4%, the “Hospitalization for unstable angina, HR” value (ITT population) was 0.679 and the “Hospitalization for unstable angina, patients with event” value (ITT population) was 2.6%. For the same molecule, the “Key secondary endpoint in patients with impaired glucose metabolism at baseline, HR” value (ITT population) was 0.829, the “Key secondary endpoint in patients with impaired glucose metabolism at baseline, patients with event” value (ITT population) was 11.3% and the “New Heart Failure (newly emergent CHF), HR (95% CI)” value (ITT population) was 0.95. The “New Heart Failure (newly emergent CHF), patients with event” value (ITT population) was 4.1%, the “New Onset Hypertension, HR (95% CI)” value (ITT population) was 0.86 and the “Non-elective (emergent or urgent) coronary revascularization, HR” value (ITT population) was 0.653. The “Peripheral Artery Disease, HR (95% CI)” value (ITT population) was 0.97, the “Peripheral Artery Disease, patients with event” value (ITT population) was 3.8% and the “Primary endpoint in patients with diabetes at baseline, HR (95% CI)” value (ITT population) was 0.769 (0.677-0.873). The “Primary endpoint in patients with diabetes at baseline, patients with event” value (ITT population) was “(18.1%)”, the “Primary endpoint in patients with impaired glucose metabolism at baseline, HR (95% CI)” value (ITT population) was 0.795 (0.675-0.937) and the “Primary endpoint in patients with metabolic syndrome at baseline, HR (95% CI)” value (ITT population) was 0.744 (0.671-0.824). The “Silent MI, patients with event” value (ITT population) was 0.7%, the “Sudden Cardiac Death, HR (95% CI)” value (ITT population) was 0.69 and the “Total Mortality or Newly Emergent CHF” value (ITT population) was 393 (9.6) n (%). For the same molecule, the “Total Mortality or Newly Emergent CHF, HR (95% CI)” value (ITT population) was 0.90 (0.78-1.03), the “Total mortality, HR” value (ITT population) was 0.87 and the “Total mortality, nonfatal MI, or nonfatal stroke, HR” value (ITT population) was 0.772. For the same molecule, the “Key secondary composite endpoint (CV death, nonfatal MI, nonfatal stroke), patients with event” value [1] was 459 (11.2%) n (%) and 459 (11.2) n (%), the “Primary composite endpoint (CV death, nonfatal MI, nonfatal stroke, coronary revascularization, hospitalization for unstable angina), patients with event” value [1] was 705 (17.2%) n (%) and 705 (17.2) n (%) and the “New Onset Hypertension, patients with event” value (ITT population) was 0.3%. The “New Onset Hypertension, patients with event” value [2] was “(0.3) %”, the “Amputation for PVD, patients with event” value [2] was “(0.5%)” and the “Cardiac Arrest, HR (95% CI)” value [2] was 0.52 (0.31, 0.86). The “Cardiac Arrest, patients with event” value [2] was “(0.5%)”, the “Coronary Revascularization (all), HR (95% CI)” value [2] was 0.66 (0.58, 0.76) and the “Coronary Revascularization (all), patients with event” value [2] was “(9.2%)”. The “Elective Revascularization, HR (95% CI)” value [2] was 0.68 (0.57, 0.82), the “Elective Revascularization, patients with event” value [2] was “(4.7%)” and the “Emergent Revascularization, HR (95% CI)” value [2] was 0.62 (0.42, 0.92). For the same molecule, the “Emergent Revascularization, patients with event” value [2] was “(1.0%)”, the “Ischemic Stroke, HR (95% CI)” value [2] was 0.64 (0.49, 0.85) and the “Ischemic Stroke, patients with event” value [2] was “(2.0%)”.
